Reference: patent EP0363589A2, “Somatostatin analogues” (SYNTEX (U.S.A.) INC., priority 1988, dated 1990)

Legend:
[1] = test system: insulin-induced glucagon release; experiment: Insulin-induced glucagon assay; type: in vivo; conditions: derived from the glucagon and insulin assays in rats
Protocol: After several days of acclimatization, rats were weigh-grouped and used on the succeeding one to three days. The rats were injected subcutaneously with 40 mg/kg pentobarbitol(Nembutal). Approximately 30 minutes after injection, the jugular and the hepatic portal veins were exposed and an injection of 0.1% bovine serum albumin (BSA)-saline vehicle or 1 IU/1 ml/kg porcine insulin in the same vehicle was administered into the jugular vein. At precisely 15 minutes after the intravenous (i.v.)injection a 1 ml blood sample was collected from the hepatic portal vein and the rat sacrificed with C02.
The blood sample was collected into a syringe containing 0.70 mg Na-EDTA and 0.1 mg Aprotinin, a commercially available protease inhibitor, in 0.1 ml 0.9% saline. The blood sample was mixed in the syringe and transferred to a plastic microcontainer serum-separator tube and held in the dark on ice. Plasma was harvested within 6 hours by centrifugation and stored at -20°C. The test material was administered intramuscularly to the animal immediately prior to the i.v. injection of insulin. Plasma samples were analyzed for levels of glucagon using a commercially available radioimmuneassay kit for animal glucagon (Cambridge Medical Technology). […]

[2] = test system: growth hormone; experiment: Nembutal-induced growth hormone assay; type: in vivo, male rats; conditions: derived from the growth hormone and insulin assays in rats
Protocol: After several days of acclimatization, male rats were weight-grouped and used on the succeeding one to three days. The rats were fasted the day prior to use. Each test rat was given an intramuscular (IM) injection of test compound or vehicle (0.1 % BSA-saline) into the right rear leg.
Immediately following the IM injection, a subcutaneous injection of Nembutal (60 mg/kg) was given. Thirteen minutes after Nembutal administration, each rat was exposed to 2 minutes of ether anesthesia followed by the collection of a 1 ml blood sample via the ocular orbit. Serum separator tubes were used to prepare serum from the blood samples. The serum samples were stored at -20°C until analysis by radioimmune assay. The mean percent inhibition of growth hormone was determined for the test compounds using the method as described in Examples 4 and 5 and the EDso derived.

Sandostatin was tested, and the “Relative selectivities for glucagon/insulin” value [1] was 11 and the “Relative selectivities for growth hormone/insulin” value [2] was 103.
